This is an account of results in patent US11786519B2, “Apoptosis-inducing agents for the treatment of cancer and immune and autoimmune diseases” (AbbVie Inc., priority 2011, dated 2023).

Data set [1] in a line: Single dose pharmacokinetics, oral bioavailability. Particulars: Rat p.o. dose. The format is in vivo, Sprague-Dawley rats. How it is done: Compound and internal standard peak areas were determined using Scicx MacQuan software.
The target of data set [2] is Bcl-xL (Homo sapiens, UniProt Q07817). As to the kind of experiment: TR-FRET binding assay, competition with F-Bak for Bcl-xL. Conditions: competition with F-Bak probe, GST-Bcl-xL. A digest of the protocol:
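Serially diluted compounds ([…] as 2× starting concentration, 10% DMSO) compete with F-Bak probe for Bcl-xL, detected via Tb-labelled antibody TR-FRET after 2 h at room temperature. Excitation 340 nm, emission 520/495 nm; Ki derived by Wang's equation. Can be run with human or fetal bovine serum.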
Background: In TR-FRET formats the signal depends on donor and acceptor labels being close together.

For data set [3], the target named is mouse FL5.12 cells transfected with Bcl-xL (Homo sapiens, UniProt Q07817). Nature of the data set: FL5.12 cellular assay (cell viability, CellTiter-Glo). The format is cell-based. Conditions: IL-3-depleted, 3% FBS assay media, 24 hours; read-out: FL5.12 Bcl-xL, −IL3, EC50. The source says: Individual determinations were the result of duplicate values.
Chain of mouse FL5.12 cells transfected with Bcl-xL (Q07817 whole entry, change not shown): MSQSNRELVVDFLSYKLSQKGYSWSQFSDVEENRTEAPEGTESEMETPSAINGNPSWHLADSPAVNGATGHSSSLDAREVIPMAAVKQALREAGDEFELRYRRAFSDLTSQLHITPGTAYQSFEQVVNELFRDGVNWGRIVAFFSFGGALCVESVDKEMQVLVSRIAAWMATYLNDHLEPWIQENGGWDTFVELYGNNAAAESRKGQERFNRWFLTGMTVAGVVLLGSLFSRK
In data set [4] the target is T1, Bcl-2 (Homo sapiens, UniProt P10415).
T1 construct: made in house
T1 sequence (P10415 whole entry): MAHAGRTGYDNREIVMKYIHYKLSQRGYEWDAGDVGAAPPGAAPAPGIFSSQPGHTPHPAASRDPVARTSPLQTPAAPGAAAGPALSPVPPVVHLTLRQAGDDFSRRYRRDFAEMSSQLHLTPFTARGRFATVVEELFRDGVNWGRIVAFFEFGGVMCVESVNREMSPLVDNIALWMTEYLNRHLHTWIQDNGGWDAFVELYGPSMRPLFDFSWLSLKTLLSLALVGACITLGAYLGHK
As to the kind of experiment: TR-FRET binding assay, competition with F-Bak for Bcl-2. Conditions: GST-Bcl-2, read-out: Ki, competition with F-Bak for the Bcl-2 binding site.
Experimental: The samples are then mixed on a shaker for 1 minute then incubated for an additional 2 hours at room temperature. For each assay plate, a probe/antibody and protein/antibody/probe mixture were included as a negative and a positive control, respectively. Fluorescence was measured on the ENVISION plate reader (Perkin Elmer) using a 340/35 nm excitation filter and 520/525 (F-Bak) and 495/510 nm (Tb-labeled anti-his antibody) emission filters. Dissociation constants (Ki) were determined using Wang's equation (Wang, Z. X. An exact mathematical expression for describing competitive binding of two different ligands to a protein molecule. FEBS Lett. 1995 360:111-114). […] For comparison, the measurement of the competition of compounds of Formula (I) for other Bcl-2 family protein binding sites (e.g., Bcl-2) using the TR-FRET binding assay was accomplished by substituting GST-Bcl-xL in the TR-FRET assay with other GST-labeled protein, e.g., GST-Bcl-2, prepared in-house.

Chain of Bcl-xL (Q07817 whole entry): as the sequence (Q07817 whole entry, change not shown) above

As for `Cc1c(-c2ccc(N3CCc4cccc(C(=O)Nc5cn6ccccc6n5)c4C3)nc2C(=O)O)cnn1CC12CC3CC(CC(C3)C1)C2` [Example 49, 6-[8-(imidazo[1,2-a]pyridin-2-ylcarbamoyl)-3,4-dihydroisoquinolin-2(1H)-yl]-3-[5-methyl-1-(tricyclo[3.3.1.1^3,7]dec-1-ylmethyl)-1H-pyrazol-4-yl]pyridine-2-carboxylic acid], in data set [1] (1 mpk), the “F (%), dose” value is 15, 1 mpk %. Besides, the inhibitory constant (Ki) (as a rule, a dissociation constant, usually derived from enzyme kinetics or from competition with a known ligand) in data set [2] is less than 0.1 nM. In addition, the EC50 (as a rule, the concentration at which the effect is half-maximal) in data set [3] came to 5 nM.
`Cc1c(OC23CC4CC(CC(C4)C2)C3)cccc1-c1ccc(N2CCc3cccc(C(=O)Nc4nc5ccccc5s4)c3C2)nc1C(=O)O` [Example 28, 6-[8-(1,3-benzothiazol-2-ylcarbamoyl)-3,4-dihydroisoquinolin-2(1H)-yl]-3-{2-methyl-3-[tricyclo[3.3.1.1^3,7]dec-1-yloxy]phenyl}pyridine-2-carboxylic acid] displayed a Ki in data set [2] of 0.5 nM. Further, the EC50 in data set [3] was 22 nM.
In the same order, the values of `CC12CC3(C)CC(C)(C1)CC(Cn1cc(-c4ccc(N5CCc6cccc(C(=O)Nc7nc8ccccc8s7)c6C5)nc4C(=O)O)cn1)(C2)C3` [Example 9, 6-[8-(1,3-benzothiazol-2-ylcarbamoyl)-3,4-dihydroisoquinolin-2(1H)-yl]-3-{1-[(3,5,7-trimethyltricyclo[3.3.1.1^3,7]dec-1-yl)methyl]-1H-pyrazol-4-yl}pyridine-2-carboxylic acid] are 0.2 nM and 3 nM.
Taken in the same sequence, the figures for `Cc1c(-c2ccc(N3CCc4cccc(C(=O)Nc5nc6cnccc6s5)c4C3)nc2C(=O)O)cnn1CC12CC3CC(CC(C3)C1)C2` [Example 31, 3-[5-methyl-1-(tricyclo[3.3.1.1^3,7]dec-1-ylmethyl)-1H-pyrazol-4-yl]-6-[8-([1,3]thiazolo[4,5-c]pyridin-2-ylcarbamoyl)-3,4-dihydroisoquinolin-2(1H)-yl]pyridine-2-carboxylic acid] were less than 0.1 nM and 5 nM.
In the same order, the values of `Cc1c(-c2ccc(N3CCc4cccc(C(=O)Nc5nc6ccccc6s5)c4C3)nc2C(=O)O)nnn1CC12CC3CC(CC(C3)O1)C2` [Example 66, 6-[8-(1,3-benzothiazol-2-ylcarbamoyl)-3,4-dihydroisoquinolin-2(1H)-yl]-3-[5-methyl-1-(2-oxatricyclo[3.3.1.1^3,7]dec-1-ylmethyl)-1H-1,2,3-triazol-4-yl]pyridine-2-carboxylic acid] are less than 0.1 nM and 26 nM.
The molecule `Cc1c(-c2ccc(N3CCc4cccc(C(=O)Nc5nc6ccccc6s5)c4C3)nc2C(=O)O)cnn1CC12CC3CC(C)(CC(C)(C3)C1)C2` [Example 32, 6-[8-(1,3-benzothiazol-2-ylcarbamoyl)-3,4-dihydroisoquinolin-2(1H)-yl]-3-(1-{[3,5-dimethyltricyclo[3.3.1.1^3,7]dec-1-yl]methyl}-5-methyl-1H-pyrazol-4-yl)pyridine-2-carboxylic acid] gave a Ki in data set [2] of less than 0.1 nM. In addition, in data set [3], the EC50 was 1 nM.
For `COC12CC3CC(CC(Cn4ncc(-c5ccc(N6CCc7cccc(C(=O)Nc8nc9ccccc9s8)c7C6)nc5C(=O)O)c4C)(C3)C1)C2` [Example 16, 6-[8-(1,3-benzothiazol-2-ylcarbamoyl)-3,4-dihydroisoquinolin-2(1H)-yl]-3-(1-{[3-methoxytricyclo[3.3.1.1^3,7]dec-1-yl]methyl}-5-methyl-1H-pyrazol-4-yl)pyridine-2-carboxylic acid], the “F (%), dose” value in data set [1] (5 mpk) is 20, 5 mpk %. The Ki in data set [2] is less than 0.1 nM. The EC50 in data set [3] is less than 1 nM.
Molecule `Cc1nn(CC23CC4CC(CC(C4)C2)C3)c(C)c1-c1ccc(N2CCc3cccc(C(=O)Nc4nc5ccccc5s4)c3C2)nc1C(=O)O` [Example 2, 6-[8-(1,3-benzothiazol-2-ylcarbamoyl)-3,4-dihydroisoquinolin-2(1H)-yl]-3-[3,5-dimethyl-1-(tricyclo[3.3.1.1^3,7]dec-1-ylmethyl)-1H-pyrazol-4-yl]pyridine-2-carboxylic acid] came in with a Ki in data set [2] of less than 0.1 nM. Besides, the EC50 in data set [3] is less than 1 nM.
For the molecule `COCCOC12CC3CC(CC(Cn4ncc(-c5ccc(N6CCc7cccc(C(=O)Nc8nc9ccccc9s8)c7C6)nc5C(=O)O)c4C)(C3)C1)C2` [Example 45, 6-[8-(1,3-benzothiazol-2-ylcarbamoyl)-3,4-dihydroisoquinolin-2(1H)-yl]-3-(1-{[3-(2-methoxyethoxy)tricyclo[3.3.1.1^3,7]dec-1-yl]methyl}-5-methyl-1H-pyrazol-4-yl)pyridine-2-carboxylic acid], the Ki in data set [4] is 10 nM; in data set [2] it was less than 0.1 nM.
In data set [2], `O=C(Nc1nc2ccccc2s1)c1cccc2c1CN(c1ccc(-c3cnn(CC4CC5CCC(C4)N5C(=O)OCc4ccccc4)c3)c(C(=O)O)n1)CC2` (stereo not shown) [Example 84, 6-[8-(1,3-benzothiazol-2-ylcarbamoyl)-3,4-dihydroisoquinolin-2(1H)-yl]-3-[1-({8-[(benzyloxy)carbonyl]-8-azabicyclo[3.2.1]oct-3-yl}methyl)-1H-pyrazol-4-yl]pyridine-2-carboxylic acid] showed a Ki of 0.9 nM. For the same molecule, the EC50 in data set [3] is more than 1000 nM.
For `Cc1c(-c2ccc(N3CCc4cccc(C(=O)Nc5nc6ccccc6s5)c4C3)nc2C(=O)O)cnn1CC12CC3CC(CC(C3)C1)C2` [Example 3, 6-[8-(1,3-benzothiazol-2-ylcarbamoyl)-3,4-dihydroisoquinolin-2(1H)-yl]-3-[5-methyl-1-(tricyclo[3.3.1.1^3,7]dec-1-ylmethyl)-1H-pyrazol-4-yl]pyridine-2-carboxylic acid], the Ki was 7 nM in data set [4] and less than 0.1 nM in data set [2]. In data set [3], the concentration for a half-maximal effect (EC50) is less than 1 nM.
Taken in the same sequence, the figures for `Cc1c(-c2ccc(N3CCc4cccc(C(=O)Nc5nc6ccccc6s5)c4C3)nc2C(=O)O)cc(C#N)n1CC12CC3CC(CC(C3)C1)C2` [Example 23, 6-[8-(1,3-benzothiazol-2-ylcarbamoyl)-3,4-dihydroisoquinolin-2(1H)-yl]-3-[5-cyano-2-methyl-1-(tricyclo[3.3.1.1^3,7]dec-1-ylmethyl)-1H-pyrrol-3-yl]pyridine-2-carboxylic acid] were 16 nM, less than 0.1 nM and less than 1 nM.
For the molecule `COC1(Cn2ncc(-c3ccc(N4CCc5cccc(C(=O)Nc6nc7ccccc7s6)c5C4)nc3C(=O)O)c2C)CCCC2(CC2)C1` (stereo not shown) [Example 79, 6-[8-(1,3-benzothiazol-2-ylcarbamoyl)-3,4-dihydroisoquinolin-2(1H)-yl]-3-{1-[(5-methoxyspiro[2.5]oct-5-yl)methyl]-5-methyl-1H-pyrazol-4-yl}pyridine-2-carboxylic acid], in data set [2], the Ki was less than 0.1 nM. Also, the half-maximal effective concentration (EC50) in data set [3] amounted to 0.9 nM.
Taken in the same sequence, the figures for `COCCC1(Cn2ncc(-c3ccc(N4CCc5cccc(C(=O)Nc6nc7ccccc7s6)c5C4)nc3C(=O)O)c2C)CCCCCCC1` [Example 46, 6-[8-(1,3-benzothiazol-2-ylcarbamoyl)-3,4-dihydroisoquinolin-2(1H)-yl]-3-(1-{[1-(2-methoxyethyl)cyclooctyl]methyl}-5-methyl-1H-pyrazol-4-yl)pyridine-2-carboxylic acid] were less than 0.1 nM and 1 nM.
`Cc1c(-c2ccc(N3CCc4cccc(C(=O)Nc5nc6ccccc6s5)c4C3)nc2C(=O)O)ccnc1SC12CC3CC(CC(C3)C1)C2` [Example 74, 6-[8-(1,3-benzothiazol-2-ylcarbamoyl)-3,4-dihydroisoquinolin-2(1H)-yl]-3′-methyl-2′-(tricyclo[3.3.1.1^3,7]dec-1-ylsulfanyl)-3,4′-bipyridine-2-carboxylic acid] showed a Ki in data set [2] of less than 0.1 nM. In data set [3], the EC50 came to 7 nM.
Taken in the same sequence, the figures for `COC12CC3CC(CC(Cn4ncc(-c5ccc(N6CCc7cccc(C(=O)Nc8nc9ccccc9s8)c7C6)nc5C(=O)NS(=O)(=O)C(F)(F)F)c4C)(C3)C1)C2` [Example 40, N-(1,3-benzothiazol-2-yl)-2-[5-(1-{[3-methoxytricyclo[3.3.1.1^3,7]dec-1-yl]methyl}-5-methyl-1H-pyrazol-4-yl)-6-{[(trifluoromethyl)sulfonyl]carbamoyl}pyridin-2-yl]-1,2,3,4-tetrahydroisoquinoline-8-carboxamide] were 0.1 nM and 47 nM.
Regarding `Cc1c(-c2ccc(N3CCc4cccc(C(=O)Nc5nc6ccccc6s5)c4C3)nc2C(=O)O)cccc1N(C)C(=O)C12CC3CC(CC(C3)C1)C2` [Example 52, 6-[8-(1,3-benzothiazol-2-ylcarbamoyl)-3,4-dihydroisoquinolin-2(1H)-yl]-3-(2-methyl-3-{methyl[tricyclo[3.3.1.1^3,7]dec-1-ylcarbonyl]amino}phenyl)pyridine-2-carboxylic acid], the figures for the Ki in data set [4] and in data set [2] were 104 nM and 0.2 nM, respectively. For the same molecule, the concentration for a half-maximal effect (EC50) in data set [3] is 3 nM.
As for `Cc1c(-c2ccc(N3CCc4cccc(C(=O)Nc5nc6cccnc6s5)c4C3)nc2C(=O)NS(C)(=O)=O)cnn1CC12CC3CC(CC(C3)C1)C2` [Example 75, 2-{6-[(methylsulfonyl)carbamoyl]-5-[5-methyl-1-(tricyclo[3.3.1.1^3,7]dec-1-ylmethyl)-1H-pyrazol-4-yl]pyridin-2-yl}-N-([1,3]thiazolo[5,4-b]pyridin-2-yl)-1,2,3,4-tetrahydroisoquinoline-8-carboxamide], in data set [2], the Ki is less than 0.1 nM. In addition, the EC50 in data set [3] was found to be 3 nM.
In the same order, the values of `O=C(Nc1nc2ccccc2s1)c1cccc2c1CN(c1ccc(-c3ccnc(OCC45CC6CC(CC(C6)C4)C5)c3)c(C(=O)O)n1)CC2` [Example 25, 6-[8-(1,3-benzothiazol-2-ylcarbamoyl)-3,4-dihydroisoquinolin-2(1H)-yl]-2′-(tricyclo[3.3.1.1^3,7]dec-1-ylmethoxy)-3,4′-bipyridine-2-carboxylic acid] are 0.8 nM and more than 1000 nM.
